Measured values taken from US20250186475A1, “METHODS OF TREATING MEDICAL CONDITIONS USING ISLATRAVIR OR A RELATED COMPOUND” (ROME Therapeutics, Inc., priority 2022, published 2025).

Tests used:
[1] = system: interferon-stimulated gene (ISG) expression; assay: In vivo decitabine challenge model; parameters: species or system C57BL/6 mice; details: islatravir p.o. 0.6, 2.0, 6.0 mg/kg once daily with decitabine i.p. 5 mg/kg, Day 0 to Day 4
Experimental: Twenty 9-11 week old C57BL/6 mice were acclimated to the lab for at least 5 days. Islatravir was prepared in a 0.5% methylcellulose solution for p.o. administration. Decitabine (Sigma) was dissolved in sterile PBS (pH 7.4) and dosed within 30 minutes of preparation of the solution. Doses of both islatravir and decitabine were administered once a day, every day from Day 0 to Day 4. On Day 0, mice were split into four groups of five mice and given their first dose of decitabine (i.p., 5 mg/kg) and compound 23. Dosing groups were: [table] Decitabine and islatravir were administered daily from Day 0 to Day 4. All mice were euthanized 1 hour after the last dose administration on Day 4. Spleens, liver, and terminal colon were collected, along with plasma from each animal. The fold changes in interferon-stimulated gene (ISG) expression was calculated by first normalizing to GAPDH gene using the Delta CT method. The CT (gene of interest)—CT (reference gene) was calculated to generate a delta CT for all samples. The fold change was then calculated by taking the […](Delta CT(control)−Delta CT (experimental). The control in this example was the PBS control animal group. The Taqman duplex assay (Thermo Fisher 4331182 and 4448489) was used according to the manufacturer's instructions to determine levels of GAPDH v. IFIT2.

SK-OV-3 cells = assay: Cancer cell viability assay with 3D cell colonies (CellTiter-Glo), SK-OV-3; format: cell-based; details: Homo sapiens, SK-OV-3, 168 h; 3D tumorsphere growth, 7 days
Experimental: (§1) Ovarian cancer cell line SK-OV-3 cells were cultured in McCoy's 5a media containing 10% FBS. Ovarian cancer cell line OVCAR-8 cells were cultured in RPMI media containing 10% FBS. Additional cancer cell lines were cultured in the following media: • Ovarian cancer SW756 cells—L-15 (100% air)+10% FBS • Esophageal cancer TE-1 cells—RPMI-1640+10% FBS • Esophageal cancer KYSE-410 cells—RPMI-1640+5˜10% FBS • Esophageal cancer KYSE-70 cells—RPMI-1640+10% h.i.FBS. • Pharyngeal cancer FaDu cells—MEM+0.01 mM NEAA+10% FBS
(§2) Cell colony formation was tested using a 3D methylcellulose-based CellTiter-Glo (CTG) viability assay (Cat. No: G7573, Promega). Briefly, cells were inoculated into 96-well plates (at 1,500 cells per well) into a solution of 0.65% methylcellulose in growth media and incubated overnight at 37° C. in 5% CO2. The next day, serially diluted test compound (islatravir) or positive control (cisplatin, Cat. No. 6J015A89, Qilu Pharma) were added at the indicated concentrations, and the cells were incubated for 7 days. On day seven, 100 μL of CTG reagent was added, and the plates were incubated at room temperature for 20 min. Luminescence was read on an Envision Multi Label Reader according to manufacturer's instructions. IC50 values were determined using the following calculation: […]

FaDu cells = assay: Cancer cell viability assay with 3D cell colonies (CellTiter-Glo), FaDu; format: cell-based; details: Homo sapiens, FaDu, 168 h, 7 days
Experimental: as §1, §2

TE-1 cells = assay: Cancer cell viability assay with 3D cell colonies (CellTiter-Glo), TE-1; format: cell-based; details: Homo sapiens, TE-1, 168 h, 7 days
Experimental: as §1, §2

C#C[C@]1(CO)O[C@@H](n2cnc3c(N)nc(F)nc32)C[C@@H]1O [Islatravir, (2R,3S,5R)-5-(6-amino-2-fluoro-9H-purin-9-yl)-2-ethynyl-2-(hydroxymethyl)tetrahydrofuran-3-ol]
change in ISG response [1]: showed the change in ISG response
IC50 (SK-OV-3 cells): 6.54 µM
IC50 (FaDu cells): 10 to 30 µM
IC50 (TE-1 cells): ≤ 10 µM
